Laboratory results as given in patent US20250313619A1, “RISANKIZUMAB COMPOSITIONS” (ABBVIE INC., priority 0001, published 2025).

Experiments:
[1] = molecular target: T1, PLA2G15 (Cricetulus griseus, UniProt G3HKV9); test: PLA2G15 inhibition study: fosinopril spiked in DP2 material, PS20 HPLC-CAD subspecies method; format: biochemical; settings: room temperature in dark for two weeks
T1 construct: PLA2 in the liquid compositions described herein is derived from a CHO cell line; endogenous in cells; host or cells: CHO cells expressing risankizumab (host-cell protein carried into drug substance/drug product)
T1 sequence (G3HKV9 34-412): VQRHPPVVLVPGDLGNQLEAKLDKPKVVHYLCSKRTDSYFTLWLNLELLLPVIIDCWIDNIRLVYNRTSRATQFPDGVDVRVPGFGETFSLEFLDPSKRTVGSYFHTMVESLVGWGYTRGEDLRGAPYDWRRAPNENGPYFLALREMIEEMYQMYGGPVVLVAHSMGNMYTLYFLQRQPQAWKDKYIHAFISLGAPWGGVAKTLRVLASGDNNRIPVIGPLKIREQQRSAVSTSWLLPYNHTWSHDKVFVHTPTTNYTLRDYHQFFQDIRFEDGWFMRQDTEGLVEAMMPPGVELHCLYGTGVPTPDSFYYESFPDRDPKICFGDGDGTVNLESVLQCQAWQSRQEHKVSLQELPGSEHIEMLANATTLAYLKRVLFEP
Description: Fosinopril is an angiotensin converting enzyme (ACE) inhibitor, which is been used to treat hypertension and some types of chronic heart failure (Murdoch et al. (1992) Drugs 43:123-140). […] All samples (including non-spiked samples) were incubated at room temperature in the dark for two weeks. PS20 degradation levels in those samples were tested with a PS20 subspecies method. PS20 degradation levels in those samples were compared with negative controls (non-spiked samples kept at room temperature in dark for two weeks) and positive controls (non-spiked samples kept at −80° C. before testing). […] The chemical structure of fosinopril is shown below.
Fosinopril sodium was dissolved in Mill-Q water at a concentration of 0.5 mg/mL. The solution was aseptically filtered with a 0.22 syringe filter before use. During the filtration, the syringe filter was flushed with Mill-Q water and then with the 0.5 mg/mL fosinopril water solution. Lower concentrations of fosinopril water solutions were aseptically diluted with Mill-Q water. More detailed sample preparation can be found in Table 22. All vials were glass vials, and solutions were well mixed before incubation. Samples were incubated at room temperature in dark for two weeks before testing.
A PS20 HPLC-CAD subspecies method was used to test the PS20 levels qualitatively as well as profiles in all samples. Solutions were transferred to HPLC vials and diluted with Milli-Q water (1:1 dilution). All HPLC vials were mixed well before placed in an HPLC autosampler for testing. Sample descriptions and labels can be found in Table 23.

[2] = molecular target: T2, PLA2G15 (Phospholipase A2 Group XV) (Homo sapiens, UniProt Q8NCC3); settings: Hinkovska-Galcheva et al. (2021); read-out: IC50, inhibition of PLA2G15 activity; cited from earlier work
T2 sequence (Q8NCC3 34-412): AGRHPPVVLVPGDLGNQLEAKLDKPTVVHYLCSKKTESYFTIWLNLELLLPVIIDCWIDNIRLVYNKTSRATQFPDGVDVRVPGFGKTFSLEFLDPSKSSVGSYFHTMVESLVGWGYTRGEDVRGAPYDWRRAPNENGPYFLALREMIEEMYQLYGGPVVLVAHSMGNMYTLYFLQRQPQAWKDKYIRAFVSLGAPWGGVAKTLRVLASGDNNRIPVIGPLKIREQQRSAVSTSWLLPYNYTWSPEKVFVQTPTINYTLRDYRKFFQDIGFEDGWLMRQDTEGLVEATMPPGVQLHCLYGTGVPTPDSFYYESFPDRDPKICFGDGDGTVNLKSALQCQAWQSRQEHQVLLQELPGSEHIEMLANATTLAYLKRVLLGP

CCC(=O)O[C@@H](O[P@](=O)(CCCCc1ccccc1)CC(=O)N1C[C@H](C2CCCCC2)C[C@H]1C(=O)O)C(C)C [fosinopril]
protection (inhibition) of PS20 degradation in the DP2 material ([1]; 0.9 μg/mL spiking level, vs non-spiked control): reduction of PS20 degradation has been observed | protection (inhibition) of PS20 degradation in the DP2 material ([1]; 0.9 μg/mL spiking level, vs non-spiked control, listed as Fosinopril): showed protection (inhibition) | protection (inhibition) of PS20 degradation in the DP2 material ([1]; 0.9-83.3 ug/mL spiked): Dose (concentration) dependent protection (inhibition) | protection (inhibition) of PS20 degradation in the DP2 material ([1]; 0.9-83.3 ug/mL spiked, listed as Fosinopril): dose dependent protection (inhibition) | IC50 [2]: ~180 nM
